Data taken from patent US20220289698A1, “INHIBITORS OF HUMAN ATGL” (Karl-Franzens-Universität Graz, priority 2019, published 2022).
Where two headings read alike, the source gives them in different places.

What was measured:
human ATGL = target: T1, human ATGL (Homo sapiens, UniProt Q96AD5); test: TG hydrolase activity, Expi cell lysates expressing human ATGL + CGI-58, radiolabelled triolein; format: biochemical
T1 construct: made in house; host or cells: Expi cells (lysate, not purified)
T1 sequence (Q96AD5 1-504): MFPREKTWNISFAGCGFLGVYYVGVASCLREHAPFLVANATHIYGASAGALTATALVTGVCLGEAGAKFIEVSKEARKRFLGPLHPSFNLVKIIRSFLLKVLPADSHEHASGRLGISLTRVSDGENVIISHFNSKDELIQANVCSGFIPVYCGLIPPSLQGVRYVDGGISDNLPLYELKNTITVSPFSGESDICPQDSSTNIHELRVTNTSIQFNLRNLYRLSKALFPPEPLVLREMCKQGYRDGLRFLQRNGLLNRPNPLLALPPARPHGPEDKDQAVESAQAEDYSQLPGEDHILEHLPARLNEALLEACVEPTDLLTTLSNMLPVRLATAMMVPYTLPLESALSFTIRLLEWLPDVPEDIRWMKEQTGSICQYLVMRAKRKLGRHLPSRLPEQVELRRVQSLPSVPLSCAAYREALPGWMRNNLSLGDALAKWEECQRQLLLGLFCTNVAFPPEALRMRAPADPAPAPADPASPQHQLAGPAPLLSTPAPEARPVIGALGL
Protocol: (§1) Triglyceride (TG) hydrolase activity was measured as previously described (Schweiger M et al., Methods in Enzymology, 2014, 538:171-93). In brief, TG hydrolase activity was determined by adding recombinant purified CGI-58 to Expi cell lysates expressing human ATGL. For determination of cross-species reactivity Expi lysates expressing ATGL from different model organisms (e.g. mouse, rat, rhesus monkey, goat, etc.) were used. Samples were incubated with DMSO (carrier) or increasing concentrations of ATGL inhibitors dissolved in DMSO. TG substrate was prepared by emulsifying 330 μM radiolabelled triolein (40,000 c.p.m./nmol) and 45 μM phosphatidylcholine/phosphatidylinositol (3:1) in 100 mM potassium phosphate buffer (pH 7.0) by sonication and adjusting to 5% essentially FA-free BSA. TG substrate was added to the reaction mixture and incubated for 1 h at 37° C. in the water bath. The reaction was terminated by adding methanol/chloroform/heptane (10:9:7) and 0.1 M potassium carbonate with 0.1 M boric acid (pH 10.5). After centrifugation at 800 g for 15 min the radioactivity in the upper phase was determined by liquid scintillation counting and the rate of FA hydrolysis was calculated. IC50 values were determined as inhibitor concentration capable of inhibiting TG hydrolase activity by 50% as compared to DMSO control. Samples were measured as duplicates. The determination of IC50 values for human ATGL is illustrated in FIG. 1.

murine ATGL = target: T2, murine ATGL (Mus musculus, UniProt Q8BJ56); test: TG hydrolase activity, Expi lysates expressing mouse ATGL + CGI-58, radiolabelled triolein; format: biochemical; settings: 50 μM compound; Example 237; read-out: Inhibition of murine ATGL at 50 μM − mean [%]
T2 construct: made in house; host or cells: Expi cells (lysate)
T2 sequence (Q8BJ56 1-486): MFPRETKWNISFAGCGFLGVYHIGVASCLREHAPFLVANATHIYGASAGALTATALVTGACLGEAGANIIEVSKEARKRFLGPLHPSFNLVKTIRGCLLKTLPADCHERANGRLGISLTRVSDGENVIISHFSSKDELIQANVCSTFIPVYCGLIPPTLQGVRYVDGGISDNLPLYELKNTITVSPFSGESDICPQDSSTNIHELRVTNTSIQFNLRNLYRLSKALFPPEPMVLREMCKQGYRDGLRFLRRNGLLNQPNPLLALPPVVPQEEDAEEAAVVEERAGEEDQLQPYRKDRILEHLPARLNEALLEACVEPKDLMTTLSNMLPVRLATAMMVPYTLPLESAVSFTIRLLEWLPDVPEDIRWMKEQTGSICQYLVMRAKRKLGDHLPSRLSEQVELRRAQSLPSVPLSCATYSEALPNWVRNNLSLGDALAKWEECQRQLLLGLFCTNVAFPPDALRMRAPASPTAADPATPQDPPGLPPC
Protocol: as §1
Lysates from Expi cells overexpressing ATGL from mouse (Mus musculus) were incubated with recombinant purified ATGL co-activator CGI-58 and ATGL inhibitors at 50 μM. Subsequently, substrate containing radiolabeled triolein was added and liberated FA were extracted and quantified by liquid scintillation. Inhibitors were dissolved in DMSO which was used as control. Samples were measured in triplicates.

[1] = Example 238, read-out: Inhibition of human ATGL IC50
[2] = Example 237, read-out: Inhibition of human ATGL − IC50

In the case of [2H]C([2H])([2H])C([2H])(OC(=O)c1cc(OC)cc(-c2ccc(OC(C)C)cc2)n1)C([2H])([2H])[2H] [Example 204, Propan-2-yl-d7 6-(4-isopropoxyphenyl)-4-methoxypicolinate], the melting point is reported as 70 to 72 °C and the IC50 (human ATGL; [1]) is reported as 1 µM.

Work on CCOC(=O)c1cccc(-c2ccc(-c3ccccn3)cc2)n1 [Example 48] yielded a melting point of 130 to 132 °C and an IC50 (human ATGL; [2]) of 25 µM.

Molecule CC(C)OC(=O)c1cccc(-c2ccc(C#Cc3ccccc3)cc2)n1 [Example 63] has a melting point of 136 to 143 °C and an IC50 (human ATGL; [2]) of 6 µM.

CCOc1ccc(-c2cc(C)cc(C(=O)OC(C)C)n2)cc1 [Example 20] showed a melting point of 85 to 88 °C and an IC50 (human ATGL; values of text and figure legend, read-out: IC50 on human ATGL (hATGL)) of 4 µM.

In the case of CCC(C)OC(=O)c1cc(OC)cc(-c2ccc(OC(C)C)cc2)n1 (stereo not shown) [Example 202, sec-Butyl 6-(4-Isopropoxyphenyl)-4-methoxypicolinate], the melting point is reported as 68 °C and the IC50 (human ATGL; [1]) is reported as 3 µM.

With CC(C)OC(=O)c1cccc(-c2ccc(C(F)(F)F)cc2F)n1 [NG-587] the melting point was 96 to 97 °C.

Work on CCSc1ccc(-c2cccc(C(=O)OC(C)C)n2)cc1 [Example 64] yielded a melting point of 93 to 96 °C and an IC50 (human ATGL; [2]) of 6 µM.

For CCOC(=O)c1ccc(-c2ccc(OCC)cc2)nc1 [NG-408], the melting point was 106 to 108 °C.

Molecule CCOC(=O)c1csc(-c2ccc(C(F)(F)F)cc2)n1 [Example 183, Ethyl 2-(4-(trifluoromethyl)phenyl)thiazole-4-carboxylate] has a melting point of 100 °C.

For CC(C)OC(=O)c1cccc(-c2ccc(O)cc2)n1 [Example 10], the melting point was 154 to 157 °C.

Work on CCOC(=O)c1cccc(-c2ccc(OCc3ccccc3)cc2)n1 [Example 9] yielded a melting point of 143 to 145 °C.

In the case of CCOc1ccc(-c2cccc(C(=O)OCc3cccnc3)n2)cc1 [Example 193, Pyridin-3-ylmethyl 6-(4-ethoxyphenyl)picolinate], the melting point is reported as 107 to 110 °C.

Molecule CCCCCCOC(=O)c1cccc(-c2ccc(OCC)cc2)n1 [Example 7] has a melting point of 48 to 51 °C.

In the case of CCOC(=O)c1csc(-c2ccc(O)cc2)n1 [Example 188, Ethyl 2-(4-hydroxyphenyl)thiazole-4-carboxylate], the melting point is reported as 171 °C.

CCOc1ccc(-c2cccc(C(=O)OCCc3ccsc3)n2)cc1 [Example 196, 2-(Thiophen-3-yl)ethyl 6-(4-ethoxyphenyl)picolinate] gave a melting point of 73 to 76 °C.

Work on CSc1ccc(-c2cccc(C(=O)OC(C)C)n2)cc1 [Example 90] yielded a melting point of 60 to 61 °C and an IC50 (human ATGL; [2]) of 3 µM.

CC(C)OC(=O)c1cccc(-c2ccc(C(C)(C)C)cc2)n1 [Example 60] showed a melting point of 104 to 106 °C.

In the case of CCOC(=O)c1cccc(-c2ccccc2)n1 [Example 39], the melting point is reported as 42 to 46 °C.

Work on CCOc1ccc(-c2ccc(O)c(C(=O)OC)n2)cc1 [NG-461] yielded a melting point of 114 to 116 °C.

In the case of CCOC(=O)c1csc(-c2ccc(C)cc2)n1 [Example 184, Ethyl 2-(p-tolyl)thiazole-4-carboxylate], the melting point is reported as 39 to 41 °C.

CCOc1ccc(-c2cccc(C(F)(F)F)n2)cc1 [NG-622] gave a melting point of 100 to 101 °C.

Molecule CCOc1ccc(-c2cccc(C(=O)OCc3ccncc3)n2)cc1 [Example 194, Pyridin-4-ylmethyl 6-(4-ethoxyphenyl)picolinate] has a melting point of 101 to 106 °C.

Molecule CCOc1ccc(-c2cccc(C(=O)OCCc3cccs3)n2)cc1 [Example 195, 2-(Thiophen-2-yl)ethyl 6-(4-ethoxyphenyl)picolinate] has a melting point of 73 to 78 °C.

In the case of COc1ccc(C#Cc2ccc(-c3cccc(C(=O)OC(C)C)n3)cc2)cc1 [Example 92], the melting point is reported as 152 to 155 °C and the IC50 (human ATGL; [2]) is reported as 3 µM.

For CCOC(=O)c1csc(-c2ccc(C(C)(C)C)cc2)n1 [Example 186, Ethyl 2-(4-(tert-butyl)phenyl)thiazole-4-carboxylate], the melting point was 50 to 52 °C.

Molecule CCOc1ccc(-c2cccc(C(=O)OCCCO)n2)cc1 [Example 5] has a melting point of 61 to 63 °C.

Work on CCOC(=O)c1cccc(-c2ccc(-c3cccnc3)cc2)n1 [Example 49] yielded a melting point of 84 to 104 °C and an IC50 (human ATGL; [2]) of 20 µM.

C#C[C@H](C)OC(=O)c1cccc(-c2ccc(CCC)cc2)n1 [Example 72] gave a melting point of 112 to 113 °C.

In the case of COCc1ccc(-c2cc(OC)cc(C(=O)OC)n2)cc1 [Example 40], the melting point is reported as 65 to 68 °C and the IC50 (human ATGL; [2]) is reported as 10 µM.

Molecule CCc1ccc(-c2cc(OC)cc(C(=O)OC(C)C)n2)cc1 [Example 205, Isopropyl 6-(4-ethylphenyl)-4-methoxypicolinate] has a melting point of 51 °C and an IC50 (human ATGL; [1]) of 3 µM.

CCOc1ccc(-c2cccc(C(=O)OCCCOC)n2)cc1 [Example 3] gave a melting point of 36 to 38 °C.

C#C[C@@H](C)OC(=O)c1cccc(-c2ccc(CCC)cc2)n1 [Example 71] gave a melting point of 112 to 113 °C and an IC50 (human ATGL; [2]) of 2 µM.

Molecule CCOc1ccc(-c2cccc(C(=O)OCCc3ccco3)n2)cc1 [Example 191, 2-(Furan-2-yl)ethyl 6-(4-ethoxyphenyl)picolinate] has a melting point of 82 to 84 °C.

With CCOC(=O)c1cccc(-c2ccc(-c3ccncc3)cc2)n1 [Example 50] the melting point was 127 to 131 °C.

CC(C)OC(=O)c1cccc(-c2ccc(N(C)C)cc2)n1 [Example 17] showed a melting point of 134 to 140 °C.

With CCOc1ccc(-c2ccc(OC)c(C(=O)OC)n2)cc1 [NG-462] the melting point was 114 to 116 °C.

For CC(C)OC(=O)c1cccc(-c2ccc(Cl)c(Cl)c2)n1 [NG-481], the melting point was 74 to 76 °C.

Molecule CCOc1ccc(-c2cccc(C(=O)OCCc3ccccc3)n2)cc1 [Example 74] has a melting point of 80 to 82 °C.

Work on CCOC(=O)c1cccc(-c2ccc(C(F)(F)F)cc2)n1 [Example 81] yielded a melting point of 110 to 112 °C.

Work on CC(C)OC(=O)c1cccc(C#Cc2ccccc2)n1 [Example 79] yielded a melting point of 85 to 86 °C.

CCOc1ccc(-c2cccc(C(=O)OCc3ccccc3)n2)cc1 [Example 22] showed a melting point of 80 to 81 °C.

CCOC(=O)Cc1cccc(-c2ccc(OCC)cc2)n1 [NG-640] showed a melting point of 90 to 91 °C.

COC(=O)c1cccc(-c2ccc(C(F)(F)F)cc2)n1 [Example 78] gave a melting point of 95 to 96 °C.

Work on CCOc1ccc(-c2cccc(C(C)=O)n2)cc1 [NG-631] yielded a melting point of 80 to 86 °C.

Work on CCOc1ccc(-c2cccc(C#N)n2)cc1 [NG-437] yielded a melting point of 109 to 111 °C.

Work on CCOc1ccc(-c2cccc(C(=O)OCC(C)(C)C)n2)cc1 [Example 4] yielded a melting point of 89 to 92 °C.

Molecule CCOc1ccc(-c2cccc(C(=O)OCc3ccccn3)n2)cc1 [Example 192, Pyridin-2-ylmethyl 6-(4-ethoxyphenyl)picolinate] has a melting point of 124 to 127 °C.

Work on CCOc1ccc(-c2ccc(OC(C)=O)c(C(=O)OC)n2)cc1 [NG-477] yielded a melting point of 120 to 123 °C.

With CCOC(=O)c1csc(-c2ccc(SC(C)C)cc2)n1 [Example 100] the inhibition at 50 µM (murine ATGL) was 0% and the IC50 (human ATGL; [2]) was 20 µM.

For C=CCOC(=O)c1cccc(-c2ccc(C(F)(F)F)cc2)n1 [Example 82], the melting point was 79 to 80 °C.

CCOc1ccc(-c2cccc(C(=O)OCc3cncs3)n2)cc1 [Example 199, Thiazol-5-ylmethyl 6-(4-ethoxyphenyl)picolinate] showed a melting point of 75 to 80 °C.
